Test results: paper PMC7146544, “Dual Plasmepsin-Targeting Antimalarial Agents Disrupt Multiple Stages of the Malaria Parasite Life Cycle” (Cell Host & Microbe, 2020)
“And” between values parts separate entries of the source, which are not always exact repeats. Identical values can stand only once. Like-named read-outs stand apart in the source and are kept apart here.

Key:
Format in all cases: cell-based, Plasmodium falciparum
[1] = test system: P. falciparum strains resistant to chloroquine, mefloquine, artemisinin, and atovaquone; test: EC50 for P. falciparum strains resistant to known antimalarials; conditions: Figure S2
Description: (§1) After 72 h incubation at 37°C each well was fixed at room temperature for 30 min with 50 μL of 0.25% glutaraldehyde (ProSciTech) diluted in PBS. Following centrifugation at 1200 rpm for 1 min, supernatants were discarded and parasites were stained with 50 μL of 5X SYBR Green (Invitrogen) diluted in PBS. 50,000 cells were counted by flow cytometry using a Cell Lab Quanta SC – MPL Flow Cytometer (Beckman Coulter) ([Bacon et al., 2007]). Growth was expressed as a percentage of the parasitemia obtained using a vehicle control. All samples were tested in triplicate. EC50 values were determined using GraphPad Prism.

[2] = test system: P. falciparum schizonts (3D7); test: P. falciparum schizont egress inhibition assay; conditions: compared with control
Description: Parasites purified by magnet separation (MACS; Miltenyi Biotec) were eluted into complete RPMI containing 1 nM Compound 1 (C1) to prevent further egress and synchronize egress to within a 5 min window ([Pino et al., 2017]). When schizont preparations were fully mature, the C1 was washed out with warm complete RPMI-HEPES medium and schizonts transferred to a microscopy chamber for live video time lapse (1 frame per 0.5 s) imaging under DIC conditions using a Zeiss Live Cell Axio observer microscope with x63 oil immersion objective and Zen Blue software used for image capture. Videos (Videos S1 and S2) were processed using Fiji (https://www.nature.com/articles/nmeth.2019). Total parasite numbers and egress events were calculated over 5 min window and expressed as average ± SD of 3 replicate experiments. Because the purified late-stage parasites cannot be fully synchronized to egress within the observation time window, only a proportion of the schizonts will egress during the period of observation. Because all treatment groups originated from the same culture (ie those treated with compound and DMSO vehicle control) the developmental stage is consistent between treatments and the difference in egress quantitation can be attributable to the drug treatment.

[3] = test system: protein processing by PMIX and PMX in P. falciparum; test: Processing inhibition assays (immunoblot of merozoites and supernatants); conditions: WM4 40 nM, WM382 2.5 nM; for AMA1 processing in merozoites / ASP processing / MTRAP processing / PMIX processing in parasites / RAP1 processing / RON3 processing / Rh1 processed fragments, release into the supernatant / SERA5 processing: E64 10 μM
Description: Processing inhibition assays were performed as previously described ([Boyle et al., 2010]). Synchronized late trophozoite/early schizont cultures to which protease inhibitors had already been added, were passed over LD magnetic columns (Miltenyi Biotech) to remove uninfected erythrocytes. The cysteine protease inhibitor E64 (Sigma) was used at 10 μM. […] A control dish without any protease inhibitor was also included. Parasites were eluted from columns with complete RPMI 1640 culture medium to which the appropriate inhibitor at the same concentration had been added. Eluted parasites were adjusted to 5x10^6 schizonts/mL and 150 ul added per well of a 96-well flat-bottomed culture dish. […] Parasites from each condition were spun at 10000 g/10 min so that merozoite and supernatant fractions could be separately collected. Proteins from both fractions were extracted with Reducing sample buffer and separated on 4%–12% or 3%–8% acrylamide gels (NuPAGE, Invitrogen).

[4] = test system: P. falciparum gametocytes; test: Standard membrane feeding assay (SMFA), transmission to mosquitoes; conditions: gametocytes treated day 13 to day 17; oocysts counted day 7 after feeding
Description: NF54 P. falciparum cultures were synchronized and maintained as described earlier at 5%–10% parasitemia at 4% hematocrit. Once parasitemia reached 8%–10% rings, parasites were diluted to 0.65% parasitemia in desired volume for the gametocyte cultures (10 mL for Petri dish or 6 × 5 mL for 6-well plate). Gametocyte cultures were supplied with gametocyte media consisted of O+ erythrocyte at 4% hematocrit in Roswell Park Memorial Institute (RPMI) 1640 medium supplemented with 26 mM 4-(2-hydroxyethyl)piperazine-1-ethanesulfonic acid (HEPES), 50 μg/mL hypoxanthine, 2.9% NaHCO3, and 10% heat-inactivated human serum. Sexual stage gametocytes were induced by allowing continuous growth cultures without the addition of fresh human erythrocytes ([Vaughan et al., 2012]). […] Stage V gametocytemia was determined by light microscopy examination of methanol fixed, Giemsa stained thin smear under 1,000 magnification. […]
On day 7 after feeding with gametocyte bloodmeal, infected mosquitoes were aspirated into a cup and anesthetized by incubating them at −20°C for 5 min until immobilized. […] Collected midguts were maintained in 1X phosphate buffered saline (PBS, GIBCO) until stained with mercurochrome for 20 min then placed on a glass slide and counted for oocysts by microscopy.

[5] = test system: P. falciparum 3D7-PMX-HA; test: EC50 in knock down parasite line 3D7-PMX-HA; conditions: presence vs absence of 2.5 mM GlcN
[6] = test system: WM5 and 4 resistant P. falciparum; test: microbe, parasite or virus in culture
Description: as §1
The parent and resistant lines were then cloned by limiting dilution, the EC50 for each line was determined and genomic DNA was purified from clonal parasites (QIAGEN Blood and Tissue Kit).

[7] = Plasmodium falciparum, 3D7, read-out: EC50, 3D7-WM4.1, WM4-resistant line 3D7-WM4.1
[8] = Plasmodium falciparum, 3D7, read-out: EC50, 3D7-WM5.1, WM5-resistant line 3D7-WM5.1

Row | SMILES | cross-resistance in drug resistant P. falciparum strains [1] | egress of merozoites from the erythrocyte [2] | AMA1 processing in merozoites [3] | ASP processing [3] | MTRAP processing [3] | PMIX processing in parasites [3] | RAP1 processing [3] | RON3 processing [3] | Rh1 processed fragments, release into the supernatant [3] | SERA5 processing [3] | EBA140 processing [3] | EBA175 processing [3] | EBA181 processing [3] | MSP1 cleavage at the known SUB1 sites [3] | MSP1 cleavage by SUB2 [3] | PMX processing in the parasite [3] | Rh5 processing [3] | Ripr processing [3] | SUB2 second processing event [3] | processing of Rh2a, Rh2b and Rh4 [3] | also measured
1 | CC(NC(=O)c1cccc(C(c2ccccc2)N2C(=N)NC(C)(C(C)C)CC2=O)c1)c1ccccc1 (racemic) [WM4] | no cross-resistance | potently inhibited egress of merozoites | inhibited cleavage | ASP was processed | did not inhibit its processing | not inhibited | processing of RAP1 to p69 was inhibited | did not block processing | the large fragment cleaved by ROM4 was not released into the supernatant | accumulation of unprocessed SERA5 | inhibited by both compounds | inhibited a cleavage event | a predominant unprocessed form was evident | inhibited | also inhibited | blocked cleavage of PMX | blocked processing of Rh5 | inhibited | inhibited this second processing event | significantly inhibited processing | oocyst numbers in mosquitoes fed treated gametocytes [4]: no significant reduction in oocyst numbers; change of EC50 when PMX expression was decreased [5]: significantly decreased; EC50 [6, 7]: 113 ± 2.3 nM; EC50 ([6]; Plasmodium falciparum, 3D7, read-out: EC50, 3D7-WM4.2, WM4-resistant line 3D7-WM4.2, Figure S1): 140 ± 52.7 nM; EC50 [6, 8]: 93.2 ± 2.04 nM; EC50 ([6]; Plasmodium falciparum, 3D7, read-out: EC50, 3D7-WM5.2, WM5-resistant line 3D7-WM5.2, Figure S1): 142 ± 5.5 nM; EC50 ([6]; Plasmodium falciparum, 3D7, read-out: EC50, 3D7-WM5.3, WM5-resistant line 3D7-WM5.3, Figure S1): 135 ± 3.8 nM; EC50 ([6]; read-out: EC50, 3D7-WM4.1, WM4-resistant line 3D7-WM4.1): 93 nM and 65.9 nM; EC50 ([6]; read-out: EC50, 3D7-WM5.1, WM5-resistant line 3D7-WM5.1): 115 ± 18.8 nM
2 | CCC1(CC)CC(=O)N([C@@H]2CCOc3ccc(C(=O)N[C@H]4CC(C)(C)Oc5ccccc54)cc32)C(=N)N1 [WM382] | no cross-resistance | potently inhibited egress of merozoites | inhibited cleavage | cleavage was inhibited | inhibited processing, although not completely | inhibited processing | prevented production of both processed forms | did and the full-length protein, as well as an additional processed product (p55), were detected | the large fragment cleaved by ROM4 was not released into the supernatant | accumulation of unprocessed SERA5 | inhibited by both compounds | inhibited a cleavage event | a predominant unprocessed form was evident | inhibited | higher activity | blocked cleavage of PMX | blocked processing of Rh5 | inhibited | inhibited this second processing event | significantly inhibited processing | oocyst numbers in mosquitoes fed treated gametocytes [4]: potently inhibited oocyst development; change of EC50 when PMX expression was decreased [5]: significantly decreased; EC50 [6, 7]: 1.88 ± 0.03 nM; EC50 [6, 8]: 2.04 ± 0.05 nM
